Values joined by “and” are separate entries in the source; they are usually repeats but may differ in a detail not shown here. Equal values may be shown once. Inconclusive results and toxic doses are left out.

This assay has as its system L1210 leukemia ip in BDF1 mice, survival T/C. Kind of assay: NCI In Vivo Anticancer Drug Screen. Data for tumor model L1210 Leukemia (intraperitoneal) in B6D2F1 (BDF1) mice. Conditions: endpoint: mean survival time, higher = longer survival. An outline of the steps: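 Tumor was transplanted into mice, which were then dosed with test compound or vehicle alone. Survival was recorded for each group, and the treated figure was expressed relative to the control figure.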

[1] abbreviates: dose: 50.0 mg/kg/injection, schedule: Q01DX009 (ip), vehicle: Klucel (hydroxypropylcellulose) (HPC).
The mark [2] stands for this setting: dose: 50.0 mg/kg/injection, schedule: Q04DX003 (ip), vehicle: saline.
[3] abbreviates: dose: 100.0 mg/kg/injection, schedule: Q04DX003 (ip), vehicle: saline.
The mark [4] stands for this setting: dose: 100.0 mg/kg/injection, schedule: Q04DX003 (ip), vehicle: Klucel (hydroxypropylcellulose) (HPC).
[5] abbreviates: dose: 100.0 mg/kg/injection, schedule: Q04DX003 (ip), vehicle: saline with Tween-80.
[6] abbreviates: dose: 100.0 mg/kg/injection, schedule: Q01DX001 (ip), vehicle: Klucel (hydroxypropylcellulose) (HPC).
The mark [7] stands for this setting: dose: 200.0 mg/kg/injection, schedule: Q01DX001 (ip), vehicle: Klucel (hydroxypropylcellulose) (HPC).
The mark [8] stands for this setting: dose: 200.0 mg/kg/injection, schedule: Q01DX009 (ip), vehicle: Klucel (hydroxypropylcellulose) (HPC).
Setting [9] is: dose: 200.0 mg/kg/injection, schedule: Q04DX003 (ip), vehicle: Klucel (hydroxypropylcellulose) (HPC).
Where [10] appears, read: dose: 400.0 mg/kg/injection, schedule: Q01DX001 (ip), vehicle: Klucel (hydroxypropylcellulose) (HPC).
[11] abbreviates: dose: 400.0 mg/kg/injection, schedule: Q01DX009 (ip), vehicle: Klucel (hydroxypropylcellulose) (HPC).
[12] abbreviates: dose: 400.0 mg/kg/injection, schedule: Q04DX003 (ip), vehicle: Klucel (hydroxypropylcellulose) (HPC).
Setting [13] is: dose: 100.0 mg/kg/injection, schedule: Q01DX009 (ip), vehicle: Klucel (hydroxypropylcellulose) (HPC).
[14] abbreviates: dose: 100.0 mg/kg/injection, schedule: Q01DX001 (ip), vehicle: saline.
Where [15] appears, read: dose: 200.0 mg/kg/injection, schedule: Q01DX001 (ip), vehicle: saline.
Setting [16] is: dose: 400.0 mg/kg/injection, schedule: Q01DX001 (ip), vehicle: saline.

With `CC(=O)N1CCCCC1`, the T/C is 97 % of control (dose: 50.0 mg/kg/injection, schedule: Q01DX001 (ip), vehicle: carboxymethylcellulose (CMC)); 94 % of control (dose: 100.0 mg/kg/injection, schedule: Q01DX001 (ip), vehicle: carboxymethylcellulose (CMC)); 100 % of control (dose: 100.0 mg/kg/injection, schedule: Q01DX009 (ip), vehicle: saline); 100 % of control (dose: 200.0 mg/kg/injection, schedule: Q01DX001 (ip), vehicle: carboxymethylcellulose (CMC)); 98 % of control (dose: 200.0 mg/kg/injection, schedule: Q01DX009 (ip), vehicle: saline).
With `CCc1ccc(NC2=NCCO2)cc1`, the T/C (dose: 12.5 mg/kg/injection, schedule: Q04DX003 (ip), vehicle: saline) was 112 % of control; the T/C (dose: 25.0 mg/kg/injection, schedule: Q01DX009 (ip), vehicle: Klucel (hydroxypropylcellulose) (HPC)) was 100 % of control; the T/C (dose: 25.0 mg/kg/injection, schedule: Q04DX003 (ip), vehicle: saline) was 114 % of control; the T/C under setting [1] was 95 % of control; the T/C under setting [2] was 101 % of control; the T/C under setting [3] was 102 % of control.
Take `C#CCOP(=O)(C#CC)OCC#C`: the T/C is 93 % of control (dose: 25.0 mg/kg/injection, schedule: Q04DX003 (ip), vehicle: Klucel (hydroxypropylcellulose) (HPC)); 97 % of control (dose: 50.0 mg/kg/injection, schedule: Q04DX003 (ip), vehicle: Klucel (hydroxypropylcellulose) (HPC)); 98 % of control under setting [4]; 95 % of control under setting [5].
Regarding `CC(=O)N(Cc1ccccc1)C1C(OCc2ccccc2)OC(CO)C(O)C1OCc1ccccc1` (centres undefined), the T/C was 89 % of control (dose: 100.0 mg/kg/injection, schedule: Q01DX001 (ip), vehicle: saline with Tween-80); 96 % of control (dose: 200.0 mg/kg/injection, schedule: Q01DX001 (ip), vehicle: saline with Tween-80); 100 % of control (dose: 400.0 mg/kg/injection, schedule: Q01DX001 (ip), vehicle: saline with Tween-80).
For the compound `COc1cc(C)ccc1C(=O)CCCC(=O)O`, the T/C is 106 % of control under setting [6]; 105 % of control under setting [4]; 98 % of control under setting [7]; 97 % of control under setting [8]; 102 % of control under setting [9]; 98 % of control under setting [10]. In addition, the T/C was 98 % of control under setting [11] and 103 % of control under setting [12].
For the compound `C=CC(C(=O)OCC)C(O)CCC` (centres undefined), the T/C runs as follows: under setting [1], 104 % of control; under setting [13], 95 % of control; under setting [4], 95 % of control; under setting [8], 101 % of control and 108 % of control; under setting [9], 94 % of control; under setting [11], 100 % of control. For the same compound, the T/C under setting [12] is 101 % of control.
Turning to `C1CC2CCC1CNC2`, the T/C by setting is: under setting [2], 104 % of control; under setting [3], 106 % of control.
For `S=c1cccn[nH]1`, the T/C (dose: 12.5 mg/kg/injection, schedule: Q01DX009 (ip), vehicle: other) is 459 % of control; the T/C (dose: 25.0 mg/kg/injection, schedule: Q01DX009 (ip), vehicle: other) was 459 % of control; the T/C (dose: 50.0 mg/kg/injection, schedule: Q01DX009 (ip), vehicle: other) is 406 % of control; the T/C (dose: 59.0 mg/kg/injection, schedule: Q01DX009 (ip), vehicle: other) was 93 % of control and 101 % of control; the T/C (dose: 89.0 mg/kg/injection, schedule: Q01DX009 (ip), vehicle: other) is 96 % of control and 99 % of control; the T/C (dose: 100.0 mg/kg/injection, schedule: Q01DX009 (ip), vehicle: other) is 341 % of control. In addition, the T/C was 94 % of control and 100 % of control (dose: 133.0 mg/kg/injection, schedule: Q01DX009 (ip), vehicle: other); 96 % of control and 90 % of control (dose: 300.0 mg/kg/injection, schedule: Q01DX009 (ip), vehicle: other).
In the case of `COC(=O)c1cc(C)cc(Oc2ccccc2N)c1C`, the T/C runs as follows: under setting [14], 88 % of control; under setting [15], 102 % of control; under setting [16], 93 % of control.
The corresponding values for `CC(C)(C)OC(=O)NC(Cc1ccccc1)C(=O)O` (centres undefined) are 100 % of control, 94 % of control and 93 % of control.
Regarding `CCSc1ncc(C(N)=O)c(N)n1`, the T/C reads like this: under setting [4], 97 % of control; under setting [9], 100 % of control; under setting [12], 92 % of control.
Consider `O=C(Nc1ccccc1F)NC(CO)(CO)CO`, for which the T/C was 97 % of control under setting [13], 98 % of control under setting [8] and 95 % of control under setting [11].
With `ClC1=c2ccccc2=C2C(Cl)=c3ccccc3=C12`, the T/C by setting is: (dose: 50.0 mg/kg/injection, schedule: Q04DX002 (ip), vehicle: Klucel (hydroxypropylcellulose) (HPC)) 97 % of control; (dose: 100.0 mg/kg/injection, schedule: Q04DX002 (ip), vehicle: Klucel (hydroxypropylcellulose) (HPC)) 97 % of control.
`Cc1ccc(NCCN(C)C)c2c(=O)c3ccccc3sc12`: the T/C was 104 % of control (dose: 9.3 mg/kg/injection, schedule: Q01DX Z (ip), vehicle: saline); 108 % of control (dose: 14.0 mg/kg/injection, schedule: Q01DX Z (ip), vehicle: saline); 118 % of control (dose: 21.0 mg/kg/injection, schedule: Q01DX Z (ip), vehicle: saline); 117 % of control (dose: 28.0 mg/kg/injection, schedule: Q01DX Z (ip), vehicle: saline); 163 % of control (dose: 42.0 mg/kg/injection, schedule: Q01DX Z (ip), vehicle: saline); 101 % of control (dose: 50.0 mg/kg/injection, schedule: Q01DX001 (ip), vehicle: saline). Besides, the T/C by setting is: (dose: 84.0 mg/kg/injection, schedule: Q01DX Z (ip), vehicle: saline) 115 % of control; (dose: 89.0 mg/kg/injection, schedule: Q01DX001 (ip), vehicle: saline) 100 % of control; (dose: 93.0 mg/kg/injection, schedule: Q01DX Z (ip), vehicle: saline) 101 % of control; under setting [14], 109 % of control; (dose: 100.0 mg/kg/injection, schedule: Q01DX Z (ip), vehicle: saline) 107 % of control; (dose: 125.0 mg/kg/injection, schedule: Q01DX Z (ip), vehicle: carboxymethylcellulose (CMC)) 151 % of control. The T/C is 117 % of control (dose: 133.0 mg/kg/injection, schedule: Q01DX001 (ip), vehicle: saline); 155 % of control and 212 % of control under setting [15].
For `COc1cc([N+](=O)[O-])ccc1NC(=O)Nc1c(C)n(C)n(-c2ccccc2)c1=O`, the T/C under setting [13] was 97 % of control, the T/C under setting [8] was 93 % of control and the T/C under setting [11] was 93 % of control.
For `CC1(C)CC(N=Cc2ccccc2O)CC(C)(C)N1O`, the T/C is 94 % of control under setting [5]; 97 % of control (dose: 200.0 mg/kg/injection, schedule: Q04DX003 (ip), vehicle: saline with Tween-80); 100 % of control (dose: 400.0 mg/kg/injection, schedule: Q04DX003 (ip), vehicle: saline with Tween-80).
For the compound `CCOC(=O)c1cn2ccc3ccccc3c2n1`, the T/C is, setting by setting: under setting [6], 103 % of control; under setting [7], 98 % of control; under setting [10], 98 % of control.
For the compound `O=S1(=O)Oc2c(Cl)cc(Cl)cc2S(=O)(=O)Oc2c(Cl)cc(Cl)cc21`, the T/C by setting is: under setting [6], 105 % of control; under setting [7], 105 % of control; under setting [10], 98 % of control.
With `Cc1cc(C(=O)CCC(=O)O)c(C)s1`, the T/C was 97 % of control (dose: 100.0 mg/kg/injection, schedule: Q01DX009 (ip), vehicle: gum acacia); 102 % of control (dose: 100.0 mg/kg/injection, schedule: Q04DX003 (ip), vehicle: gum acacia); 90 % of control (dose: 200.0 mg/kg/injection, schedule: Q01DX009 (ip), vehicle: gum acacia); 96 % of control (dose: 200.0 mg/kg/injection, schedule: Q04DX003 (ip), vehicle: gum acacia); 101 % of control (dose: 400.0 mg/kg/injection, schedule: Q01DX009 (ip), vehicle: gum acacia); 101 % of control (dose: 400.0 mg/kg/injection, schedule: Q04DX003 (ip), vehicle: gum acacia).

The record behind these values is PubChem BioAssay AID248 (DTP/NCI, 2004).
